Values quoted from earlier work in patent US8778989B2, “Cosmetic composition comprising a lipid fraction from vegetable source and anticrystaling agent” (Natura Cosmeticos S.A., priority 2004, dated 2014).
Like-named read-outs stand apart in the source and are kept apart here.

Relative Velocity of Oxidation of Fatty Acids (T = 20° C.)	Relative Velocity of Oxidation of Fatty Acids (T = 37° C.)	Relative Velocity of Oxidation of Fatty Acids (T = 100° C.)	oxidation rate relative to oleic acid (as fast as oleic acid) [times]	SMILES
48	42	64	15	CCCCC/C=C\C/C=C\CCCCCCCC(=O)O [Linoleic, 9,12-linoleic acid]
4		6		CCCCCCCC/C=C\CCCCCCCC(=O)O [Oleic, oleic acid]
		0.6		CCCCCCCCCCCCCCCCCC(=O)O [Stearic]
